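Dose response: 5 concentrations. Exposure: 48 h. Format: 96-well plates. Endpoint: linear interpolation; highest concentration if not reached. Here, GI50 denotes the concentration required for 50% inhibition of growth.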 Calls of active or inactive are those of the source. Cut-off read from the data, not from the text of the source: active = GI50 up to about 1.1 µM and inactive = higher.
Legend:
Experiment in all cases: NCI-60 cell line screen, 48 h
[1] = test system: M14
[2] = test system: IGROV-1
[3] = test system: CAKI-1
[4] = test system: SK-MEL-28
[5] = test system: SK-MEL-2
[6] = test system: CCRF-CEM
[7] = test system: UO-31
[8] = test system: ACHN
[9] = test system: SNB-19
[10] = test system: HCC 2998
[11] = test system: KM12
[12] = test system: K562
[13] = test system: A498
[14] = test system: SK-MEL-5
[15] = test system: NCI-H226
[16] = test system: RPMI-8226

Measured: GI50

CCCCCN(CCCCC)C(=O)[C@@H](CCC(=O)OCc1ccccc1)NC(=O)c1cc2ccccc2[nH]1
inactive: [1] > 100 µM | [2] > 100 µM | [3] 8.81 µM | [4] > 100 µM | [5] > 100 µM | [6] > 100 µM | [7] > 100 µM | [8] > 100 µM | [9] > 100 µM | [10] > 100 µM | [11] 7.67 µM | [12] 5.55 µM | [13] > 100 µM

CCOC(=O)CC1=N/C(=N/C(=N)N[N+](=O)[O-])SC1
inactive: [14] > 100 µM | [1] > 100 µM | [2] > 100 µM | [3] > 100 µM | [4] > 100 µM | [5] > 100 µM | [15] > 100 µM | [6] > 100 µM | [7] > 100 µM | [8] > 100 µM | [9] > 100 µM | [10] > 100 µM | [11] > 100 µM | [12] > 100 µM | [13] > 100 µM

CC1(Br)CC2OC3(Br)C=CC(C)(O)C2(CC1=O)C3(C)C (stereo not given)
inactive: [14] > 100 µM | [1] > 100 µM | [2] > 100 µM | [3] > 100 µM | [4] > 100 µM | [5] > 100 µM | [15] > 100 µM | [6] 16 µM | [7] > 83.9 µM | [8] > 100 µM | [9] > 100 µM | [16] 36.8 µM | [10] > 100 µM | [11] > 100 µM | [12] 19.1 µM | [13] > 100 µM

O=C1C2C(C(=O)N1O)N(Cc1ccccc1)C(=O)N2Cc1ccccc1 (stereo not given)
inactive: [14] > 100 µM | [1] > 100 µM | [2] > 100 µM | [3] > 100 µM | [4] > 100 µM | [15] > 100 µM | [6] > 100 µM | [7] > 100 µM | [8] > 100 µM | [9] > 100 µM | [16] > 100 µM | [10] > 100 µM | [11] > 100 µM | [12] > 100 µM | [13] > 100 µM

O=C1O[C@@H](c2ccccc2)C[C@H]1CN1CCOCC1
inactive: [14] > 100 µM | [1] > 100 µM | [2] > 100 µM | [3] 20.4 µM | [4] > 100 µM | [5] > 100 µM | [15] 43.6 µM | [6] 33.7 µM | [7] > 100 µM | [8] > 100 µM | [16] 14.6 µM | [10] > 100 µM | [11] 89.5 µM | [12] 40.7 µM | [13] > 100 µM

O=C(Cc1ccccc1)NN1C(=O)C(Cl)C1c1cc(Br)cc(Br)c1O (stereo not given)
inactive: [14] 13.6 µM | [1] 14.8 µM | [2] 13.1 µM | [3] 25.8 µM | [4] 10.3 µM | [5] 15.1 µM | [15] 14.7 µM | [6] 3.05 µM | [7] 4.11 µM | [8] 6.35 µM | [9] 8.34 µM | [16] 6.81 µM | [10] 13.8 µM | [11] 40.1 µM | [12] 6.44 µM

C#CC1(O)c2ccccc2C(=O)c2ccccc21
inactive: [2] 11.8 µM | [3] > 100 µM | [4] > 100 µM | [5] > 100 µM | [15] > 100 µM | [6] > 100 µM | [8] > 100 µM | [9] > 100 µM | [10] > 100 µM | [11] > 100 µM | [12] > 100 µM | [13] 10.9 µM

CC(C)C(=O)Nc1nc2c(ncn2C2OC(CO)C(O)C2O)c(=O)[nH]1 (stereo not given)
inactive: [14] > 100 µM | [1] > 100 µM | [2] > 100 µM | [3] > 100 µM | [4] > 100 µM | [5] > 100 µM | [15] > 100 µM | [6] > 100 µM | [7] > 100 µM | [8] > 100 µM | [16] > 100 µM | [10] > 100 µM | [11] > 100 µM | [12] > 100 µM | [13] > 100 µM

C/C(CC(=O)Nc1cccc(Cl)c1C)=N\NC(=O)c1ccncc1
inactive: [14] > 100 µM | [1] > 100 µM | [2] > 100 µM | [4] > 100 µM | [5] > 100 µM | [15] > 100 µM | [6] > 100 µM | [7] > 100 µM | [16] > 100 µM | [10] > 100 µM | [11] > 100 µM | [12] > 100 µM

C/C(=C\C(=O)Nc1ccc2[nH]nnc2c1)Nc1ccc2[nH]nnc2c1
inactive: [14] > 100 µM | [1] > 100 µM | [2] > 100 µM | [3] > 100 µM | [4] > 100 µM | [15] > 100 µM | [6] > 100 µM | [7] > 100 µM | [8] > 100 µM | [9] > 100 µM | [16] > 100 µM | [10] > 100 µM | [11] > 100 µM | [12] > 100 µM | [13] > 100 µM

NC(=O)N1N=C2c3ccccc3OC[C@H]2[C@@H]1c1ccccc1
inactive: [14] 1.91 µM | [1] 2.07 µM | [2] 18.8 µM | [3] 35.6 µM | [4] 25.5 µM | [5] 27.6 µM | [15] 22.5 µM | [6] 13.4 µM | [7] 42.4 µM | [8] 5.68 µM | [9] 31.6 µM | [16] 8.89 µM | [10] 10.7 µM | [11] 9.31 µM | [12] 14.4 µM | [13] 16.4 µM

OC1/C(=C/c2ccccc2)CNC/C1=C\c1ccccc1 (stereo not given)
inactive: [14] > 100 µM | [1] > 100 µM | [2] > 100 µM | [3] 43.1 µM | [4] > 100 µM | [6] 40.8 µM | [7] 87.5 µM | [8] > 100 µM | [9] > 100 µM | [16] > 100 µM | [10] > 100 µM | [11] > 100 µM | [13] > 100 µM

CSc1nc(-c2ccccc2)c2c(n1)-c1ccccc1CC2
inactive: [14] > 100 µM | [1] > 100 µM | [2] > 100 µM | [3] > 100 µM | [4] > 100 µM | [5] > 100 µM | [15] > 100 µM | [6] > 100 µM | [7] > 100 µM | [9] > 100 µM | [16] > 100 µM | [11] > 100 µM | [12] > 100 µM | [13] > 100 µM

CN(C)c1ccc2nc3c(ccc4ccccc43)[o+]c2c1
inactive: [14] 13.4 µM | [1] 11 µM | [2] 12.3 µM | [3] 15.5 µM | [4] 14.8 µM | [5] 19.6 µM | [15] 17.7 µM | [6] 3.17 µM | [7] 17.7 µM | [8] 13.8 µM | [9] 17.7 µM | [16] 3.48 µM | [10] 17.5 µM | [11] 15 µM | [12] 2.74 µM | [13] 17.8 µM

O=[N+]([O-])c1nccn1CC(O)c1ccc(F)cc1 (stereo not given)
inactive: [14] > 100 µM | [1] > 100 µM | [2] > 100 µM | [3] > 100 µM | [4] > 100 µM | [5] > 100 µM | [15] > 100 µM | [6] > 100 µM | [7] > 100 µM | [8] > 100 µM | [9] > 100 µM | [16] > 100 µM | [11] > 100 µM | [12] > 100 µM | [13] > 100 µM

O=C(Sc1sc(=S)sc1SC(=O)c1ccccc1)c1ccccc1
inactive: [14] > 100 µM | [1] 68.9 µM | [2] 43.2 µM | [3] > 100 µM | [4] > 100 µM | [5] 41.4 µM | [6] > 100 µM | [8] > 100 µM | [9] 37.1 µM | [16] > 100 µM | [10] 34.2 µM | [11] 37.4 µM | [12] > 100 µM | [13] 31.5 µM

COCC(OC)C(CC=C(C#N)C#N)OC (stereo not given)
inactive: [14] > 100 µM | [1] > 100 µM | [2] > 100 µM | [3] > 100 µM | [4] > 100 µM | [5] > 100 µM | [6] > 100 µM | [7] > 100 µM | [8] > 100 µM | [9] > 100 µM | [16] > 100 µM | [10] > 100 µM | [11] > 100 µM | [12] > 100 µM | [13] > 100 µM

CC(C)(O)[C@@H]1CCC(C)([C@H]2[C@@H](O)CC3(C)C4CC(OC5OC(CO)C(O)C(O)C5O)C5C(C)(C)[C@@H](OC6OCC(O)C(O)C6O)CC[C@@]56C[C@@]46CC[C@]23C)O1 (stereo not given in full)
inactive: [14] > 100 µM | [1] > 100 µM | [2] > 100 µM | [4] > 100 µM | [5] > 100 µM | [15] > 100 µM | [6] > 100 µM | [7] > 100 µM | [8] > 100 µM | [9] > 100 µM | [16] > 100 µM | [10] > 100 µM | [11] > 100 µM | [12] > 100 µM

Cn1c(=O)nc2n(-c3cccc(Br)c3)c3ccccc3nc-2c1=O
inactive: [14] 1.75 µM | [1] 2.81 µM | [2] 7.76 µM | [3] 12.3 µM | [5] 5.06 µM | [15] 8.38 µM | [6] 5.82 µM | [7] 12.9 µM | [8] 1.36 µM | [9] 1.38 µM | [16] 4.57 µM | [10] 2.59 µM | [11] 4.8 µM | [12] 5.16 µM | [13] 10.2 µM

— ChEMBL document CHEMBL1201862, “PubChem BioAssay data set” (2004)
